In patent US12715893B2, “Oxysterol compounds and uses thereof” (MAX BIOPHARMA, INC., priority 2020, dated 2026):

How the values were obtained:
[1] = system: Hedgehog target gene Gli1; assay: Expression of Hedgehog target gene Gli1 (quantitative RT-PCR) in M2 cells; type: cell-based; conditions: 5% FBS in DMEM, 1 μM and 5 μM, vs DMSO control (FIG. 6)
Protocol: (§1) The compounds described herein were tested on cell cultures to assess their effects on the mRNA expression of Hedgehog target genes Gli1. Conditioned medium (CM) was collected from CAPAN-1 human pancreatic tumor cells grown to confluence in DMEM containing 10% fetal bovine serum (FBS) and contains Hh proteins that activate the Hh pathway in cells receiving the CM. After 7 days of incubation of confluent cells with the described medium, CM was collected, spun for 5 minutes at 1800 rpm to remove dead cells and debris, and then frozen at −80° C. For treating cells, CM was thawed and diluted 1:2 to 1:6 with DMEM containing 5% FBS. NIH3T3 cells and M2 cells were cultured in 12-well plates with DMEM containing 10% FBS. The cells were then treated with DMEM containing 5% FBS or CM in the presence or absence of the compounds prepared in DMSO when they reach confluence. Quantitative RT-PCR was then performed according to the following approach. After 72 to 96 hours of the treatments, the cells were lysed and subjected to RNA extraction with RNease Plus Min kit (Qiagen). A portion of RNA from each well was subjected to Reverse Transcription (RT) using iScript Reverse Transcription Supermix (BioRad). QPCR was performed to test the expression of Hh target gene Gli1 using IQ SYBR Green Supermix (BioRad).

Hh signaling = conditions: background statement; Compound 8 in mesenchymal cells; cited from earlier work
[2] = system: Hedgehog target gene Gli1; assay: Expression of Hedgehog target gene Gli1 (quantitative RT-PCR) in NIH3T3 cells; type: cell-based; conditions: for effect on Hh signaling (relative expression of Gli1) / effect on Gli/Hh signaling in cells treated with Conditioned Medium (relative expression of Gli1): 5 μM and 10 μM; for effect on Hh signaling (relative expression of Gli1): vs DMSO control (FIG. 5); for effect on Gli/Hh signaling in cells treated with Conditioned Medium (relative expression of Gli1): CAPAN-1 conditioned medium (CM), vs CM (FIG. 5, FIG. 7)
Protocol: as §1

[3] = system: Hedgehog target gene Gli1; assay: Expression of Hedgehog target gene Gli1 (Q-RT-PCR, normalized to Oaz1) in C3H10T1/2 cells; type: cell-based; conditions: 5 μM and 10 μM, 72 hours (FIG. 9)
Protocol: as §1, with “A portion of RNA from each well was subjected to Reverse Transcription (RT) using iScript Reverse Transcription Supermix (BioRad). QPCR was performed to test the expression of Hh target gene Gli1 using IQ SYBR Green Supermix (BioRad).” left out
In a similar manner, C3H10T1/2 cells were pretreated for 2 hours with Compound 17 in DMEM containing 5% FBS. […] After 72 hours, RNA was extracted and analyzed by Q-RT-PCR for the expression of Hh target gene Gli1 and normalized to Oaz1 expression.

TGFβ signaling = conditions: background statement; cited from earlier work

**Q.** What does the source list for `CCCCCC[C@](C)(O)[C@H]1CC[C@H]2[C@@H]3C[C@H](O)[C@H]4C[C@@H](O)CC[C@]4(C)[C@H]3CC[C@@]21C` [Compound 10, (3S,5S,6S,8R,9S,10R,13S,14S,17S)-17-((S)-2-hydroxyoctan-2-yl)-10,13-dimethylhexadecahydro-1H-cyclopenta[a]phenanthrene-3,6-diol, reference compound]?
**A.** effect on Gli signaling (relative expression of Gli1) [1]: stimulate Gli signaling; effect on Hh signaling (Hh signaling): Hh activator

**Q.** Which “effect on Hh signaling (relative expression of Gli1)” value ([2]; 5% FBS in DMEM) does the source give for `C[C@]12CC[C@H](O)C[C@@H]1CC[C@@H]1[C@@H]2CC[C@]2(C)[C@@H]([C@H](O)CCc3ccc(F)cc3)CC[C@@H]12` [Compound 2, (3S,5S,8R,9S,10S,13S,14S,17S)-17-((R)-3-(4-fluorophenyl)-1-hydroxypropyl)-10,13-dimethylhexadecahydro-1H-cyclopenta[a]phenanthren-3-ol] here?
**A.** The value was “increase Hh signaling, although Compound 2 to a lesser degree than Compound 1”.

**Q.** And the “effect on Gli/Hh signaling in cells treated with Conditioned Medium (relative expression of Gli1)” value [2]?
**A.** The value was “weak Hh antagonist”.

**Q.** For `C[C@]12CC[C@H]3[C@@H](CC=C4C[C@@H](O)CC[C@@]43C)[C@@H]1CC[C@@H]2[C@H](O)CCc1ccc(F)cc1` [Compound 1, (3S,8S,9S,10R,13S,14S,17S)-17-((R)-3-(4-fluorophenyl)-1-hydroxypropyl)-10,13-dimethyl-2,3,4,7,8,9,10,11,12,13,14,15,16,17-tetradecahydro-1H-cyclopenta[a]phenanthren-3-ol], which “effect on Hh signaling (relative expression of Gli1)” value ([2]; 5% FBS in DMEM) is on record?
**A.** Its value is “increase Hh signaling”.

**Q.** What about the “effect on Gli signaling (relative expression of Gli1)” value [1] of the same compound?
**A.** Its value is “stimulate Gli signaling”.

**Q.** For `C[C@]12CC[C@H](O)C[C@@H]1CC[C@@H]1[C@@H]2CC[C@]2(C)[C@@H](C(CCc3ccc(F)cc3)=NO)CC[C@@H]12` [Compound 17, 3-(4-fluorophenyl)-1-((3S,5S,8R,9S,10S,13S,14S,17S)-3-hydroxy-10,13-dimethylhexadecahydro-1H-cyclopenta[a]phenanthren-17-yl)propan-1-one oxime], which “effect on Hh signaling (relative expression of Gli1)” value ([3]; 5% FBS in DMEM) is on record?
**A.** Its value is “activator of Hh signaling”.

**Q.** What about the “effect on conditioned medium induced Gli1 expression” value ([3]; CAPAN-1 CM, 2 hours pretreatment) of the same compound?
**A.** Its value is “further enhances the conditioned medium induced Gli1 expression”.

**Q.** Which “effect on Hh signaling” value (Hh signaling) does the source give for `CC(C)CC[C@@H](O)[C@](C)(O)[C@H]1CC[C@H]2[C@@H]3CC=C4C[C@@H](O)CC[C@]4(C)[C@H]3CC[C@]12C` [Compound 9, 20α,22(R)-dihydroxycholesterol] here?
**A.** Its value is “blocks Hh signaling”.

**Q.** With `CC(C)CCC[C@](C)(O)[C@H]1CC[C@H]2[C@@H]3CC=C4C[C@@H](O)CC[C@]4(C)[C@H]3CC[C@@]21C` [Compound 8, 20(S)-hydroxycholesterol] as the compound, how does the “effect on Hh signaling” value (Hh signaling) read?
**A.** The value was “induces allosteric activation of Hh signaling”.

**Q.** Which “effect on TGFβ signaling” value (TGFβ signaling) does the source give for `C[C@]12CC[C@H]3[C@@H](CC=C4C[C@@H](O)CC[C@@]43C)[C@@H]1CC[C@@H]2[C@](C)(O)CCc1cccnc1` [Compound 12, (3S,8S,9S,10R,13S,14S,17S)-17-((R)-2-hydroxy-4-(pyridin-3-yl)butan-2-yl)-10,13-dimethyl-2,3,4,7,8,9,10,11,12,13,14,15,16,17-tetradecahydro-1H-cyclopenta[a]phenanthren-3-ol] here?
**A.** The value was “blocks TGFβ signaling”.

**Q.** What about the “effect on Hh signaling” value (Hh signaling) of the same compound?
**A.** The value was “Hh inhibitors”.

**Q.** Which results are given for `CC[C@@](O)(CCc1cccnc1)[C@H]1CC[C@H]2[C@@H]3CC[C@H]4C[C@@H](O)CC[C@]4(C)[C@H]3CC[C@]12C` [Compound 6, (3S,5S,8R,9S,10S,13S,14S,17S)-17-((R)-3-hydroxy-1-(pyridin-3-yl)pentan-3-yl)-10,13-dimethylhexadecahydro-1H-cyclopenta[a]phenanthren-3-ol]?
**A.** effect on baseline expression of Gli ([2]; 5% FBS in DMEM, 10 μM, vs DMSO control (FIG. 8)): lowers the baseline expression of Gli; effect on Gli/Hh signaling in cells treated with Conditioned Medium (relative expression of Gli1) [2]: inhibits Gli signaling

**Q.** Which “effect on Gli signaling (relative expression of Gli1)” value [1] does the source give for `C[C@]12CC[C@H](O)C[C@@H]1[C@@H](O)C[C@@H]1[C@@H]2CC[C@]2(C)[C@@H]([C@H](O)CCc3ccc(F)cc3)CC[C@@H]12` [Compound 5, (3S,5S,6S,8S,9S,10R,13S,14S,17S)-17-((R)-3-(4-fluorophenyl)-1-hydroxypropyl)-10,13-dimethylhexadecahydro-1H-cyclopenta[a]phenanthrene-3,6-diol] here?
**A.** Its value is “stimulate Gli signaling”.

**Q.** Which “effect on Hh signaling” value (Hh signaling) does the source give for `C[C@]12CC[C@H](O)C[C@@H]1CC[C@@H]1[C@@H]2CC[C@@]2(C)[C@H]1CC[C@@H]2[C@](C)(O)CCc1ccc(F)cc1` [Compound 11, (3S,5S,8R,9S,10S,13S,14S,17S)-17-((R)-4-(4-fluorophenyl)-2-hydroxybutan-2-yl)-10,13-dimethylhexadecahydro-1H-cyclopenta[a]phenanthren-3-ol] here?
**A.** Its value is “Hh inhibitors”.
